Source: patent US20250341026A1, “METHODS AND MEANS FOR PREPARING A LIBRARY FOR SEQUENCING” (Illumina, Inc., priority 2018, published 2025)

How the values were obtained:
gDNA (nuclear) = experiment: ATAC-seq reads mapped to nuclear gDNA after contacting the sample with dye; assay type: biochemical; conditions: transposition and ATAC-seq
Experimental: (§1) A sample was obtained having both nuclear DNA and mtDNA. The sample was separated into various aliquots, and each aliquot was contacted with Hoechst 33258 dye in various concentrations, including 8 μM, 80 μM, and 800 μM. Each aliquot was then subjected to transposition and ATAC-seq, and the DNA reads were analyzed.
(§2) As shown in FIGS. 2A-2C, Hoechst dye selectively stained mtDNA, preventing transposition into mtDNA, but allowing transposition of nuclear DNA. […] The methods and compositions may be used for bulk ATAC-seq or single cell ATAC-seq to inhibit, reduce, or eliminate undesired mtDNA sequencing reads.

mtDNA [1] = experiment: ATAC-seq reads mapped to mtDNA after contacting the sample with dye; assay type: biochemical; conditions: for Effect on mitochondrial DNA reads: ATAC-seq, increasing dye concentrations (FIGS. 2A-2C); for % Mapped to mtDNA: transposition and ATAC-seq
Experimental: as §1, §2

nucleosome positioning = experiment: ATAC-seq profiles (nucleosome positioning) with dyes compared to no dye control; assay type: biochemical; conditions: FIG. 4; compared to the no dye control
Experimental: A sample was obtained having both nuclear DNA and mtDNA. The sample was separated into various aliquots, and each aliquot was contacted with a different dye in various concentrations. Five different dyes were used, including Hoechst (at concentrations of 50 μM, 25 μM, 12 μM, 6 μM, 3 μM, and 0.6 μM), SYBR Gold (at concentrations of 500 μM, 50 μM, 5 μM, 0.5 μM, and 0.1 μM), Sytox Orange (at concentrations of 500 μM, 50 μM, 5 μM, 0.5 μM, and 0.1 μM), PicoGreen (at concentrations of 100 μM, 10 μM, 1 μM, 0.1 μM, and 0.02 μM), and Qubit (at concentrations of 100 μM, 10 μM, 1 μM, 0.1 μM, and 0.02 μM), as shown in FIGS. 3A-3C. Another aliquot was prepared that was not exposed to any dye. Each aliquot was then subjected Nextera transposition and products were visualized on a gel. FIG. 3A depicts the gel for Hoechst and SYBR Gold. FIG. 3B depicts the gel for Sytox Orange and PicoGreen, and FIG. 3C depicts the gel for Qubit and no dye. High molecular weight DNA products are indicative of inefficient transposition.
Hoechst allows relatively unbiased ATAC-seq profiling while not changing nucleosome positioning.

mtDNA [2] = experiment: DAPI staining of samples; assay type: binding
From the text: In addition to performing transposition and ATAC-seq, the samples were also stained. […] DAPI stained DNA, but not at certain locations.

[3] = Concentration of Hoechst 800 μM

| Structure (SMILES) | % Mapped to gDNA (nuclear) (gDNA (nuclear); Concentration of Hoechst 8 μM) | % Mapped to gDNA (nuclear) (gDNA (nuclear); Concentration of Hoechst 80 μM) | % Mapped to gDNA (nuclear) (gDNA (nuclear); [3]) | Effect on mitochondrial DNA reads (mtDNA [1]) | Effect on mitochondrial DNA reads (mtDNA [1]; listed as Hoechst dye) | % Mapped to mtDNA (mtDNA [1]; Concentration of Hoechst 8 μM) | % Mapped to mtDNA (mtDNA [1]; Concentration of Hoechst 80 μM) | % Mapped to mtDNA (mtDNA [1]; [3]) | Effect on ATAC-seq profiles (nucleosome positioning) (nucleosome positioning) | Staining of mtDNA versus actively transcribed regions of nuclear DNA (mtDNA [2]) |
| --- | --- | --- | --- | --- | --- | --- | --- | --- | --- | --- |
| CN1CCN(c2ccc3[nH]c(-c4ccc5[nH]c(-c6ccc(O)cc6)nc5c4)nc3c2)CC1 [Hoechst, Hoechst 33258] | 68% | 89% | 100% | reduces mitochondrial DNA reads | decreasing mtDNA reads | 32% | 11% | 0% | does not alter the ATAC-seq profiles | – |
| N=C(N)c1ccc(-c2cc3ccc(C(=N)N)cc3[nH]2)cc1 [DAPI, 4′, 6-diamidino-2-phenylindole] | – | – | – | – | – | – | – | – | – | staining of mtDNA took place but not of actively transcribed (ATAC) regions of nuclear DNA |
